Measurements as given in publication PMC9126943, “ADAMTS4-specific MR probe to assess aortic aneurysms in vivo using synthetic peptide libraries” (Nature Communications, 2022).
“Also recorded” adds a separate entry of the source. Where a SMILES comes first, the peptide text is derived from it. Bridges are numbered along the chain shown (N, C = ends). The star is where a group is joined. Cy5(nonsulfonated) = CN1C(=CC=CC=CC2=[N+](CCCCCC(=O)*)c3ccccc3C2(C)C)C(C)(C)c2ccccc21

Molecular target: T1, ADAMTS5 (Homo sapiens, UniProt Q9UNA0)
T1 construct: His; purchased BioTeZ Berlin-Buch GmbH 30 400 502
T1 sequence (Q9UNA0 262-930): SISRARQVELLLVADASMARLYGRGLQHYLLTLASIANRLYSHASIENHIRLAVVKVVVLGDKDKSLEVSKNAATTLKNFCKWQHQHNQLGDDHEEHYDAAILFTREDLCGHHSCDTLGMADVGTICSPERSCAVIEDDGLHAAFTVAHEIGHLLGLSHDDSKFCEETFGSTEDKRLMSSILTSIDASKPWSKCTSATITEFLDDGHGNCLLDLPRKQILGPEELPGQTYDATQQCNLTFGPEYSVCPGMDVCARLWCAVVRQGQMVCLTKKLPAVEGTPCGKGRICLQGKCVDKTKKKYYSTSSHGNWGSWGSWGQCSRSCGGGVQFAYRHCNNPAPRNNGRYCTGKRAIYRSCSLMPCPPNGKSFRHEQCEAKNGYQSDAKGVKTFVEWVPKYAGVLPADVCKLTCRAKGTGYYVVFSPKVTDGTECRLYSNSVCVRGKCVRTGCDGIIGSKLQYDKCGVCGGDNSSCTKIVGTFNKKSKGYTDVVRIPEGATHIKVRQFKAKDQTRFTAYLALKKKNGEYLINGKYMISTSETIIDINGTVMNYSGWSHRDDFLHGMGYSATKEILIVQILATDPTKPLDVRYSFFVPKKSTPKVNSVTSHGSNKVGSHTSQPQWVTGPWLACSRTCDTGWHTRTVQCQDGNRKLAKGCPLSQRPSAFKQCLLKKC
Experiment: MST instrument, ligand-dependent fluorescence change, Cy5-labeled peptide vs ADAMTS5
Assay type: binding
Conditions: Cy5-labeled peptide 3 nM, ADAMTS5 starting concentration 2.46 µM, n = 3
Description: Microscale thermophoresis (MST) was performed on a Monolith Pico (NanoTemper, Munich, Germany). The Cy5-labeled peptides were diluted into the MST buffer (150 mM NaCl, 50 mM TRIS-HCl, 5 mM CaCl2, and Tween-20) to reach a dilution of 6 nM. ADAMTS4, ADAMTS5, and ADAMTS1 were directly used with the supplied concentration. For ADAMTS4, the starting concentration was 4.96 µM, while for ADAMTS1 it was 4.88 µM and for ADAMTS5 it was 2.46 µM. Since we saw a loss of binding after centrifugation, the use of protein concentrators were inappropriate. 20 µl of the protein solutions were transferred into a PCR tube. 10 µl of this first vial was transferred into a second vial and mixed by pipetting with 10 µl of the MST buffer. […] The capillaries were transferred into the Monolith tray and measured with 10% excitation power on the pico-red excitation on high MST power at 25 °C. […] We detected a ligand-dependent fluorescence change for some of the systems. We checked for ADAMTS4 and the ADAMTS4-specific-Cy5-labeled probe via a saturation test for specifying the ligand-dependent fluorescence change. […] The samples were heated at 95 °C for 5 min and measured in the MST. The fluorescence difference between the concentrations was afterward at the same level. Each measurement was repeated three times independently and the binding constant was calculated by merging all three measurements. […]

Compound: C[N+]1=C(C=CC=CC=C2N(CCCCCC(=O)NCCCC[C@H](NC(=O)CNC(=O)CNC(=O)[C@H](CO)NC(=O)CNC(=O)CNC(=O)[C@H](CO)NC(=O)[C@@H]3CSSC[C@H](N)C(=O)N[C@@H](CO)C(=O)N[C@@H](CCCNC(=N)N)C(=O)N[C@@H](CCCNC(=N)N)C(=O)NCC(=O)N3)C(=O)NCC(N)=O)c3ccccc3C2(C)C)C(C)(C)c2ccccc21 [Cy5-labeled probe] (H-CSRRGCSGGSGGK(Cy5(nonsulfonated))G-NH2; disulfide 1-6; N-terminus and C-terminus assumed)
- binding to ADAMTS5, in words: determination of the binding constant is not possible; also recorded: plateau was not reached; also recorded: a ligand dependent fluorescence change occurs
